How the values were obtained:
[1] = test system: RNase A contained in plasma; assay: Activity of RNase A contained in diluted bovine plasma, RNase Alert QC test Kit (Example 4); format: biochemical; conditions: 37° C., 60 minutes
Description: In Example 4, bovine plasma was used as an organism derived sample. The bovine plasma was used after being diluted 10 times or 20 times in advance. Similarly to Example 3, RNase Alert QC test Kit (Ambion) was used for measuring the activity of the RNase A. RNaseAlert substrate and SDS were added to the 10 times diluted bovine plasma such that final concentrations of the SDS become 0.05%, 0.1%, 0.2%, 0.3%, 0.4%, and 0.5% respectively to be set as Test Examples 1 to 6. In addition, RNaseAlert substrate and SDS were added to the 20 times diluted bovine plasma such that final concentrations of the SDS become 0.05%, 0.1%, 0.2%, 0.3%, 0.4%, and 0.5% respectively to be set as Test Examples 7 to 12. In addition, 10 times diluted bovine plasma to which SDS is not added was set as Comparative Example 1 and 20 times diluted bovine plasma to which SDS is not added was set as Comparative Example 2. Test Examples 1 to 12 and Comparative Examples 1 and 2 were kept warm for 60 minutes at a temperature of 37° C. and the activity of the RNase A was measured during the time period using the same method as in Example 3.

[2] = target: T1, RNase A (Bos taurus, UniProt P61823); assay: RNase A activity, RNase Alert QC test Kit (Example 3); format: biochemical; conditions: RNase A 0.003 U/mL, 37° C., 60 minutes, compared to Comparative Example 2 without SDS
T1 sequence (P61823 27-150): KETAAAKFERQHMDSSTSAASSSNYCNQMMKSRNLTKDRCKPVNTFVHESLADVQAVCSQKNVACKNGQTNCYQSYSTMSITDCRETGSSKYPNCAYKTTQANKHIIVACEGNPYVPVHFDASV
Description: RNase Alert QC test Kit (Ambion) was used for measuring the activity of the RNase A. The RNase A was added to the solution containing RNaseAlert substrate with a final concentration of 0.003 U/mL. The SDS was added to the RNase A solution with a final concentration of 0.1% or 1.0% each to be set as Test Example 1 and Test Example 2. […] Test Examples 1 and 2 and Comparative Examples 1 and 2 were kept warm for 60 minutes at a temperature of 37° C. A fluorescent material (FAM) is bonded with a quencher in the RNaseAlert substrate. The fluorescent material emits when the fluorescent material is separated from the quencher using the RNase A. Excitation light and luminescence of the fluorescence was measured to be 490 nm and 520 nm respectively, using Chromo4 (Bio-rad).

[3] = test system: nucleic acid amplification reaction (genome of Bifidobacterium bifidum as template); assay: LAMP reaction with SDS and HPβCD, bacterial genome as template (Example 6); format: biochemical
Description: In Example 6, nucleic acid amplification reaction was performed using the LAMP method using a genome of Bifidobacterium bifidum as a template nucleic acid. In addition, a sample for nucleic acid amplification reaction, a primer, and a quenching probe used for the nucleic acid amplification reaction were the same as those in Example 5. HPβCD was prepared such that a final concentration of HPβCD in a nucleic acid amplification reaction solution becomes 2.5%. Furthermore, SDS was added thereto such that the SDS concentrations become 0%, 0.05%, 0.1%, 0.2%, 0.3%, 0.4%, 0.5%, and 1.0% to be set as Test Examples 1 to 8 respectively. In addition, HPβCD was prepared such that a final concentration of HPβCD in a nucleic acid amplification reaction solution becomes 5.0%. Furthermore, SDS was added thereto such that the SDS concentrations become 0%, 0.05%, 0.1%, 0.2%, 0.3%, 0.4%, 0.5%, and 1.0% to be set as Test Examples 9 to 16 respectively. In addition, nucleic acid amplification reaction solutions prepared such that the HPβCD concentration becomes 0% and the SDS concentrations become 0%, 0.01%, and 0.1% to be set as Comparative Examples 1 to 3.

[4] = test system: Bifidobacterium bifidum; assay: Nucleic acid extraction from bacteria by heat treatment with SDS, followed by LAMP (Example 5); conditions: HPβCD 5% (w/v), LAMP 63° C.
Description: In Example 5, Bifidobacterium bifidum from which it is comparatively difficult to extract the nucleic acid was used as bacteria. The Bifidobacterium bifidum (NBRC number: 100015) was obtained from Biological Resource Center (NBRC) of National In statute of Technology and Evaluation (NITE). In addition, the nucleic acid amplification reaction of a genome of Bifidobacterium bifidum was performed using the LAMP method and an LAMP reaction reagent (Eiken Chemical Co., Ltd, Loopamp® DNA Amplification reagent Kit) was used as a sample for the nucleic acid amplification reaction.
A quenching probe shown in Table 3 was used for detecting an amplification nucleic acid chain. In Example 5, excitation light and luminescence of light derived from a fluorescent material FAM bonded with the quenching probe was measured to be 490 nm and 520 nm respectively, using Chromo4 (Bio-rad).
A cell suspension in which the Bifidobacterium bifidum is prepared to be 100 copies/ml. In Example 5, as Test Examples 3 to 5, SDS was added to the cell suspension at the time of heat treatment such that concentrations of SDS become 0.01%, 0.1%, and 1%, respectively (refer to Table 4). In addition, as Test Examples 1 and 2 and Comparative Example 1, cell suspensions to which SDS was not added was prepared (refer to Table 4). The heat treatment was performed for 3 minutes at a temperature of 90° C. for Test Examples 1 and 3 to 5 before starting the nucleic acid amplification reaction. In addition, sonication was performed for Test Example 2 before starting the nucleic acid amplification reaction. After the heating process or the sonication, a LAMP reaction reagent and a primer and quenching probe of Table 3 were added to Test Examples 1 to 5. Furthermore, hydroxyprophyl-β-cyclodextrin (Tokyo Chemical Industry Co., Ltd.) was added to Test Examples 1 to 5 such that a final concentration of the hydroxyprophyl-β-cyclodextrin becomes 5% (w/v). A sample for nucleic acid amplification reaction, a primer, a quenching probe, and HPβCD were added to Comparative Example 1 as well. […]

Compound	SDS concentration with which the activity of the RNase A was suppressed ([1]; bovine plasma diluted 10 times (Test Examples 5 and 6))	SDS concentration with which the activity of the RNase A was suppressed ([1]; bovine plasma diluted 20 times (Test Examples 9 to 12))	activity of the RNase A ([2]; SDS 0.1% (Test Example 1))	activity of the RNase A ([2]; SDS 1.0% (Test Example 2))	SDS concentration at which amplification of the nucleic acid was confirmed ([3]; HPβCD not added)	amplification of the nucleic acid ([3]; HPβCD not added, SDS concentration 0.1%)	Tt value ([4]; SDS 0.01% at heat treatment, 3 minutes at 90° C. (Test Example 3))	Tt value ([4]; SDS 0.1% at heat treatment, 3 minutes at 90° C. (Test Example 4))	amplification of the nucleic acid ([4]; SDS 1% at heat treatment, 3 minutes at 90° C. (Test Example 5))	HPβCD concentration relative to the SDS concentration to suppress the inhibition of the LAMP reaction due to the SDS ([3]; in the nucleic acid amplification reaction solution)
CCCCCCCCCCCCOS(=O)(=O)[O-].[Na+] [SDS, sodium dodecyl sulfate]	≥ 0.4%	≥ 0.2%	suppressed	suppressed	≤ 0.01%	No amplification of the nucleic acid was confirmed	17.5 min	14.2 min	no amplification of the nucleic acid	
hydroxyprophyl-β-cyclodextrin [HPβCD]										≥ 8 times

— US20140322761A1, “METHOD OF PREPARING SAMPLE FOR NUCLEIC ACID AMPLIFICATION REACTION, NUCLEIC ACID AMPLIFICATION METHOD, AND REAGENT AND MICROCHIP FOR SOLID PHASE NUCLEIC ACID AMPLIFICATION REACTION” (Sony Corporation, priority 2013, published 2014)
